Laboratory results from patent US20240199692A1 (priority 2019, published 2024).
Where a SMILES comes first, the peptide text is derived from it. [ ]: non-standard residue; d: D form. The star is where a group is joined. Benzoyl(4-O-C6H4-4-CONHMe) = CNC(=O)c1ccc(Oc2ccc(C(=O)*)cc2)cc1; X16 = O=C(O)CCNC(=O)c1ccc(Oc2ccc(C(=O)*)cc2)cc1; X19 = O=C(O)CNC(=O)c1ccc(Oc2ccc(C(=O)*)cc2)cc1; X6 = NCCCCNC(=O)c1ccc(Oc2ccc(C(=O)*)cc2)cc1; Benzoyl(4-OPh) = O=C(c1ccc(Oc2ccccc2)cc1)*; X9 = O=C(NCCCO)c1ccc(Oc2ccc(C(=O)*)cc2)cc1; NMeW = CN[C@@H](Cc1c[nH]c2ccccc12)C(=O)O; NMeY = CN[C@@H](Cc1ccc(O)cc1)C(=O)O; NMeI = CC[C@H](C)[C@H](NC)C(=O)O; NMeT = CN[C@H](C(=O)O)[C@@H](C)O; NMeE = CN[C@@H](CCC(=O)O)C(=O)O; NMeN = CN[C@@H](CC(N)=O)C(=O)O; NMeL = CN[C@@H](CC(C)C)C(=O)O; NMeK = CN[C@@H](CCCCN)C(=O)O; Dap(Me) = CNC[C@H](N)C(=O)O; NMeM = CN[C@@H](CCSC)C(=O)O; NMeV = CN[C@H](C(=O)O)C(C)C; β3hP = O=C(O)C[C@@H]1CCCN1; Orn = NCCC[C@H](N)C(=O)O; Aze = O=C(O)[C@@H]1CCN1; Dab = NCC[C@H](N)C(=O)O; Dap = NC[C@H](N)C(=O)O; Ava = NCCCCC(=O)O; GABA = NCCCC(=O)O

target: T1, MMP2 (Homo sapiens, UniProt P08253); test: Inhibitory effects on human MMP2 (Method 1), enzyme assay with MOCAc-Pro-Leu-Gly-Leu-A2pr(Dnp)-Ala-Arg-NH2 substrate, 96-well; assay type: biochemical; settings: Test Example No. 1-1 (Method 1, 96-well microplate); read-out: Human MMP2, IC50
T1 sequence (P08253 110-660): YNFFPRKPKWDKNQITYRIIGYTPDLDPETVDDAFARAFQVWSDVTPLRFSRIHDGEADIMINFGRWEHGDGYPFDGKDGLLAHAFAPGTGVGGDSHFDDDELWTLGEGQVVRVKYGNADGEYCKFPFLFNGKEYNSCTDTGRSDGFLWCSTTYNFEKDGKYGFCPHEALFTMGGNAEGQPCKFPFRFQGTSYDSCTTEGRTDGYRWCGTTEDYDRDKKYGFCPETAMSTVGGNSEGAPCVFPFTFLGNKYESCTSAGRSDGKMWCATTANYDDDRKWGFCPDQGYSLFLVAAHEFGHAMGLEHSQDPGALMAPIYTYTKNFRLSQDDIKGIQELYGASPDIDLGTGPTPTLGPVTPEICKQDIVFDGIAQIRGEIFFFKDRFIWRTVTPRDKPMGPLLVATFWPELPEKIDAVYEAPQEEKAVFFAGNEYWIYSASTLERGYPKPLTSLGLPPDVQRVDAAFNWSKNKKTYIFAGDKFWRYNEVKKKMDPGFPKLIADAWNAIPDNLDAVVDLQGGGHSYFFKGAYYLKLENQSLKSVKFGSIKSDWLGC
Method: In a reaction solution [50 mmol/L Tris-HCl (pH 7.5), 150 mmol/L NaCl, 10 mmol/L CaCl2, 0.05% Brij L23], 100 μg/mL human recombinant MMP2 enzyme and 1 mmol/L 4-Aminophenylmercuric acetate were mixed together, and reacted at 37° C. for 60 minutes. The human MMP2 activated through the reaction was poured into a 96-well microplate to reach a final concentration of 0.7 or 7 ng/mL.

| SMILES | IC50 [nM] |
| --- | --- |
| CC[C@H](C)[C@@H](C(=O)N1CCC[C@H]1C(N)=O)N(C)C(=O)[C@H](CC(C)C)NC(=O)[C@H](C)NC(=O)[C@H](CC(=O)O)NC(=O)[C@H](CCC(=O)O)N(C)C(=O)CCCNC(=O)c1ccc(Oc2ccccc2)cc1 [Compound 126] ({Benzoyl(4-OPh)-GABA}-[NMeE]DAL[NMeI]P-NH2; N-terminus assumed) | 0.29 |
| CC[C@H](C)[C@@H](C(=O)N1CCC[C@H]1C(N)=O)N(C)C(=O)[C@H](CC(C)C)NC(=O)[C@H](C)NC(=O)[C@H](CC(=O)O)NC(=O)[C@H](CCCCN)N(C)C(=O)CCCNC(=O)c1ccc(Oc2ccccc2)cc1 [Compound 127] ({Benzoyl(4-OPh)-GABA}-[NMeK]DAL[NMeI]P-NH2; N-terminus assumed) | 0.24 |
| CC[C@H](C)[C@@H](C(=O)N1CCC[C@H]1C(N)=O)N(C)C(=O)[C@H](CC(C)C)NC(=O)[C@H](C)NC(=O)[C@H](CC(=O)O)NC(=O)[C@H](CCC(N)=O)NC(=O)CCCNC(=O)c1ccc(Oc2ccccc2)cc1 [Compound 128] ({Benzoyl(4-OPh)-GABA}-QDAL[NMeI]P-NH2; N-terminus assumed) | 0.15 |
| CC[C@H](C)[C@@H](C(=O)N1CCC[C@H]1C(N)=O)N(C)C(=O)[C@H](CC(C)C)NC(=O)[C@H](C)NC(=O)[C@H](CC(=O)O)NC(=O)[C@H](Cc1ccc(O)cc1)N(C)C(=O)CCCNC(=O)c1ccc(Oc2ccccc2)cc1 [Compound 129] ({Benzoyl(4-OPh)-GABA}-[NMeY]DAL[NMeI]P-NH2) | 0.46 |
| CC[C@H](C)[C@@H](C(=O)N1CCC[C@H]1C(N)=O)N(C)C(=O)[C@H](CC(C)C)NC(=O)[C@H](C)NC(=O)[C@H](CC(=O)O)NC(=O)[C@H](Cc1c[nH]c2ccccc12)N(C)C(=O)CCCNC(=O)c1ccc(Oc2ccccc2)cc1 [Compound 130] ({Benzoyl(4-OPh)-GABA}-[NMeW]DAL[NMeI]P-NH2; N-terminus assumed) | 0.36 |
| CC[C@H](C)[C@@H](C(=O)N1CCC[C@H]1C(N)=O)N(C)C(=O)[C@H](CC(C)C)NC(=O)[C@H](C)NC(=O)[C@H](CC(=O)O)NC(=O)[C@H]([C@@H](C)O)N(C)C(=O)CCCNC(=O)c1ccc(Oc2ccccc2)cc1 [Compound 131] ({Benzoyl(4-OPh)-GABA}-[NMeT]DAL[NMeI]P-NH2; N-terminus assumed) | 0.36 |
| CC[C@H](C)[C@@H](C(=O)N1CCC[C@H]1CC(N)=O)N(C)C(=O)[C@H](CC(C)C)NC(=O)[C@H](CN)NC(=O)[C@H](CC(=O)O)NC(=O)[C@@H]1CCN1C(=O)CCCNC(=O)c1ccc(Oc2ccccc2)cc1 [Compound 132] ({Benzoyl(4-OPh)-GABA}-[Aze]D[Dap]L[NMeI][β3hP]-NH2; N-terminus assumed) | 0.43 |
| CC[C@H](C)[C@@H](C(=O)N1CCC[C@H]1CC(N)=O)N(C)C(=O)[C@H](CC(C)C)NC(=O)[C@H](CCN)NC(=O)[C@H](CC(=O)O)NC(=O)[C@@H]1CCN1C(=O)CCCNC(=O)c1ccc(Oc2ccccc2)cc1 [Compound 133] ({Benzoyl(4-OPh)-GABA}-[Aze]D[Dab]L[NMeI][β3hP]-NH2; N-terminus assumed) | 0.88 |
| CC[C@H](C)[C@@H](C(=O)N1CCC[C@H]1C(N)=O)N(C)C(=O)[C@H](CC(C)C)NC(=O)[C@H](CCN)NC(=O)[C@H](CC(=O)O)NC(=O)[C@H](CCSC)N(C)C(=O)CCCNC(=O)c1ccc(Oc2ccccc2)cc1 [Compound 134] ({Benzoyl(4-OPh)-GABA}-[NMeM]D[Dab]L[NMeI]P-NH2) | 2 |
| CC[C@H](C)[C@@H](C(=O)N1CCC[C@H]1C(N)=O)N(C)C(=O)[C@H](CC(C)C)NC(=O)[C@H](CCN)NC(=O)[C@H](CC(=O)O)NC(=O)[C@H](C(C)C)N(C)C(=O)CCCNC(=O)c1ccc(Oc2ccccc2)cc1 [Compound 135] ({Benzoyl(4-OPh)-GABA}-[NMeV]D[Dab]L[NMeI]P-NH2; N-terminus assumed) | 9.3 |
| CC[C@H](C)[C@@H](C(=O)N1CCC[C@H]1C(N)=O)N(C)C(=O)[C@H](CC(C)C)NC(=O)[C@H](CCN)NC(=O)[C@H](CC(=O)O)NC(=O)[C@H](CC(C)C)N(C)C(=O)CCCNC(=O)c1ccc(Oc2ccccc2)cc1 [Compound 136] ({Benzoyl(4-OPh)-GABA}-[NMeL]D[Dab]L[NMeI]P-NH2; N-terminus assumed) | 4.7 |
| CC(C)C[C@H](NC(=O)[C@H](CCN)NC(=O)[C@H](CC(=O)O)NC(=O)[C@@H](NC(=O)CCCNC(=O)c1ccc(Oc2ccccc2)cc1)C(C)C)C(=O)N(C)[C@@H](CCC(=O)O)C(=O)N1CCC[C@H]1CC(N)=O [Compound 143] ({Benzoyl(4-OPh)-GABA}-VD[Dab]L[NMeE][β3hP]-NH2; N-terminus assumed) | 2.6 |
| CC(C)C[C@H](NC(=O)[C@H](CCN)NC(=O)[C@H](CC(=O)O)NC(=O)[C@H](CCC(=O)O)NC(=O)CCCNC(=O)c1ccc(Oc2ccccc2)cc1)C(=O)N(C)[C@@H](CCC(=O)O)C(=O)N1CCC[C@H]1CC(N)=O [Compound 144] ({Benzoyl(4-OPh)-GABA}-ED[Dab]L[NMeE][β3hP]-NH2; N-terminus assumed) | 0.26 |
| CC(C)C[C@H](NC(=O)[C@H](CCN)NC(=O)[C@H](CC(=O)O)NC(=O)[C@H](CCCN)NC(=O)CCCNC(=O)c1ccc(Oc2ccccc2)cc1)C(=O)N(C)[C@@H](CCC(=O)O)C(=O)N1CCC[C@H]1CC(N)=O [Compound 145] ({Benzoyl(4-OPh)-GABA}-[Orn]D[Dab]L[NMeE][β3hP]-NH2; N-terminus assumed) | 0.72 |
| CC[C@H](C)[C@@H](C(=O)N1CCC[C@H]1CC(N)=O)N(C)C(=O)[C@H](CC(C)C)NC(=O)[C@H](CCN)NC(=O)[C@H](CC(=O)O)NC(=O)[C@@H](NC(=O)CCCNC(=O)c1ccc(Oc2ccccc2)cc1)C(C)C [Compound 146] ({Benzoyl(4-OPh)-GABA}-VD[Dab]L[NMeI][β3hP]-NH2; N-terminus assumed) | 1.7 |
| CC[C@H](C)[C@@H](C(=O)N1CCC[C@H]1CC(N)=O)N(C)C(=O)[C@H](CC(C)C)NC(=O)[C@H](CCN)NC(=O)[C@H](CC(=O)O)NC(=O)[C@H](CCC(=O)O)NC(=O)CCCNC(=O)c1ccc(Oc2ccccc2)cc1 [Compound 147] ({Benzoyl(4-OPh)-GABA}-ED[Dab]L[NMeI][β3hP]-NH2; N-terminus assumed) | 0.14 |
| CC[C@H](C)[C@@H](C(=O)N1CCC[C@H]1CC(N)=O)N(C)C(=O)[C@H](CC(C)C)NC(=O)[C@H](CCN)NC(=O)[C@H](CC(=O)O)NC(=O)[C@H](CCCN)NC(=O)CCCNC(=O)c1ccc(Oc2ccccc2)cc1 [Compound 148] ({Benzoyl(4-OPh)-GABA}-[Orn]D[Dab]L[NMeI][β3hP]-NH2; N-terminus assumed) | 0.48 |
| CC[C@H](C)[C@@H](C(=O)N1CCC[C@H]1CC(N)=O)N(C)C(=O)[C@H](CC(C)C)NC(=O)[C@H](CNC)NC(=O)[C@H](CC(=O)O)NC(=O)[C@H](CC(N)=O)N(C)C(=O)CCCNC(=O)c1ccc(Oc2ccccc2)cc1 [Compound 154] ({Benzoyl(4-OPh)-GABA}-[NMeN]D[Dap(Me)]L[NMeI][β3hP]-NH2; N-terminus assumed) | 0.44 |
| CNC(=O)c1ccc(Oc2ccc(C(=O)NCCCC(=O)N[C@@H](CC(N)=O)C(=O)N[C@@H](CC(=O)O)C(=O)N[C@@H](C)C(=O)N[C@@H](CC(C)C)C(=O)N[C@@H](CCSC)C(=O)N3CCC[C@H]3C(N)=O)cc2)cc1 [Compound 177, N^2-(4-{4-[4-(methylcarbamoyl)phenoxy]benzamido}butanoyl)-L-asparaginyl-L-α-aspartyl-L-alanyl-L-leucyl-L-methionyl-L-prolinamide] ({Benzoyl(4-O-C6H4-4-CONHMe)-GABA}-NDALMP-NH2) | 0.21 |
| CSCC[C@H](NC(=O)[C@H](CC(C)C)NC(=O)[C@H](C)NC(=O)[C@H](CC(=O)O)NC(=O)[C@H](CC(N)=O)NC(=O)CCCCNC(=O)c1ccc(Oc2ccc(C(=O)NCC(=O)O)cc2)cc1)C(=O)N1CCC[C@H]1C(N)=O [Compound 178] ({X19-Ava}-NDALMP-NH2; N-terminus assumed) | 3.6 |
| CC(C)C[C@H](NC(=O)[C@H](CCN)NC(=O)[C@H](CC(=O)O)NC(=O)[C@H](CC(N)=O)NC(=O)CCCCNC(=O)c1ccc(Oc2ccc(C(=O)NCCCCN)cc2)cc1)C(=O)N(C)[C@@H](CCC(=O)O)C(=O)N1CCC[C@H]1CC(N)=O [Compound 181] ({X6-Ava}-ND[Dab]L[NMeE][β3hP]-NH2; N-terminus assumed) | 3.1 |
| CC(C)C[C@H](NC(=O)[C@H](CCN)NC(=O)[C@H](CC(=O)O)NC(=O)[C@H](CC(N)=O)NC(=O)CCCCNC(=O)c1ccc(Oc2ccc(C(=O)NCCCO)cc2)cc1)C(=O)N(C)[C@@H](CCC(=O)O)C(=O)N1CCC[C@H]1CC(N)=O [Compound 182] ({X9-Ava}-ND[Dab]L[NMeE][β3hP]-NH2; N-terminus assumed) | 0.49 |
| CC(C)C[C@H](NC(=O)[C@H](CCN)NC(=O)[C@H](CC(=O)O)NC(=O)[C@H](CC(N)=O)NC(=O)CCCCNC(=O)c1ccc(Oc2ccc(C(=O)NCCC(=O)O)cc2)cc1)C(=O)N(C)[C@@H](CCC(=O)O)C(=O)N1CCC[C@H]1CC(N)=O [Compound 183] ({X16-Ava}-ND[Dab]L[NMeE][β3hP]-NH2; N-terminus assumed) | 7 |
